AUC, Ki and ED50 data for 1 compound are collected here from ChEMBL document CHEMBL1135802, “Pyrrolo[1,3]benzothiazepine-based atypical antipsychotic agents. Synthesis, structure-activity relationship, molecular modeling, and biological studies” (J Med Chem, 2002).

For data set [1], the species on record is Rattus norvegicus. Conditions: in vivo.
Description: Area under curve (AUC) value of Dopamine level after first treatment (7.4 uM/Kg) in dialysates collected from rat striatum.
The species named for data set [2] is Rattus norvegicus. Conditions: in vivo. This is another data set of the same source.
Description: Area under curve (AUC) value of HVA level after first treatment (7.4 uM/Kg) in dialysates collected from rat striatum.
The species entered for data set [3] is Rattus norvegicus. The settings on record: in vivo. The source holds these as a separate data set.
Description: Area under curve (AUC) value of Dopamine level after total treatment in dialysates collected from rat striatum.
The species entered for data set [4] is Rattus norvegicus. Conditions: in vivo. This is another data set of the same source.
The target in data set [5] is T1, Adrenergic receptor alpha-2 (Rattus norvegicus, UniProt P22086+P19328+P22909).
T1 sequence (P22086 whole entry): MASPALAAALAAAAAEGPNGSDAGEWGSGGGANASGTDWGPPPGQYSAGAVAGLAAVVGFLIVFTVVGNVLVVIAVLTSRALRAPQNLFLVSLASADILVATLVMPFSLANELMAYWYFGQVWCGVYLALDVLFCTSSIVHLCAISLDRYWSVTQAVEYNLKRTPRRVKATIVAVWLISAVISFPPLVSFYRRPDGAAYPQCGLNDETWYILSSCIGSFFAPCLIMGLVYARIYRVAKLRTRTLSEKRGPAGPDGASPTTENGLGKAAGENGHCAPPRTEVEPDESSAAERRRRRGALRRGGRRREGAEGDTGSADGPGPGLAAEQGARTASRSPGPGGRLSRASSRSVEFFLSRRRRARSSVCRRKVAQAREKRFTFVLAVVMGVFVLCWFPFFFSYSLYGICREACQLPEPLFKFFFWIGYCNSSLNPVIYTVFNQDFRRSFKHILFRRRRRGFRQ
T1 sequence (P19328 whole entry): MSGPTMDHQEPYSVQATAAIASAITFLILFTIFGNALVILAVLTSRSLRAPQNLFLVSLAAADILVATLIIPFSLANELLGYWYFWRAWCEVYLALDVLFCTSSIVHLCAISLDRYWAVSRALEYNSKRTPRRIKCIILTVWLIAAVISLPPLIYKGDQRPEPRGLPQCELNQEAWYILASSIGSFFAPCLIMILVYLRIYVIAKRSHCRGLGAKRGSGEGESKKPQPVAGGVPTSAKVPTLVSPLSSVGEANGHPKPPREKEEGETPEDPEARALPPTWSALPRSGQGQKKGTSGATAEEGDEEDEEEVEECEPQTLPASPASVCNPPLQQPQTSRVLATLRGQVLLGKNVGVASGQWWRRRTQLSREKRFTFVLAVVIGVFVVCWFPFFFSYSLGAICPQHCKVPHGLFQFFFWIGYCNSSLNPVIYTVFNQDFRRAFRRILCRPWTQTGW
T1 sequence (P22909 whole entry): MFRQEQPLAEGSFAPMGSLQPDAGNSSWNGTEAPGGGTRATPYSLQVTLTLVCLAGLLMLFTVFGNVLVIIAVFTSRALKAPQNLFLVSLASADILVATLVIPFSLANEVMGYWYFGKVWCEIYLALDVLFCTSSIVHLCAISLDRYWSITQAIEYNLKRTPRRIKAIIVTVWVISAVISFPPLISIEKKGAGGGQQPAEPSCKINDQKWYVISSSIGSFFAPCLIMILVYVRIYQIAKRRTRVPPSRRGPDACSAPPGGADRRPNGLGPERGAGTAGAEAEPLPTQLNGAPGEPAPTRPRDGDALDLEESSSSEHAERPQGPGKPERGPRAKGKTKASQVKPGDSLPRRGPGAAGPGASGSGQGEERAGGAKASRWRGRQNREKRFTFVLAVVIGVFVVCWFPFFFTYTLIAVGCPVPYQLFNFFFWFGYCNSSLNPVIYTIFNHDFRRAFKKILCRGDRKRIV
Format: tissue-based, Frontal cortex.
Description: Half-maximal inhibition of [3H]clonidine binding to Alpha-2 adrenergic receptor in rat frontal cortex homogenate

The species named for data set [6] is Mus musculus. Kind of data set: animal or person. Format: functional. Conditions: po.
The species named for data set [7] is Mus musculus. In words: animal or person. The class given is functional. The settings on record: route oral.
For data set [8], the species on record is Rattus norvegicus. Conditions: in vivo. The source holds these as a separate data set.
The species entered for data set [9] is Mus musculus. Kind of data set: animal or person. Conditions: sc, route subcutaneous. The class given is functional.
The target in data set [10] is T2, Muscarinic acetylcholine receptor M1 (Rattus norvegicus, UniProt P08482).
T2 sequence (P08482 whole entry): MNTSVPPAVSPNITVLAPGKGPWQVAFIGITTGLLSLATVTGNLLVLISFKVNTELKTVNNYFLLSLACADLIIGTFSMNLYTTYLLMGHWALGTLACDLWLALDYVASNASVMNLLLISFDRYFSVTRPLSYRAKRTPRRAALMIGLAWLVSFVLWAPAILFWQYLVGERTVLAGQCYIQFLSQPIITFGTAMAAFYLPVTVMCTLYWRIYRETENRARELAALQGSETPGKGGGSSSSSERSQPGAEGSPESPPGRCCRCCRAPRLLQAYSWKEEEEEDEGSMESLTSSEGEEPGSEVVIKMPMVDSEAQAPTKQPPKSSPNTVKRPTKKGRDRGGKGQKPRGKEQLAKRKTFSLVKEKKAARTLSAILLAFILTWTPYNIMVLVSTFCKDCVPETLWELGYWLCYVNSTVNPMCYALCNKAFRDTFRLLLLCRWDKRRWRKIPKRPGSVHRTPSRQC
In words: biochemical. The class given is tissue-based, Frontal cortex.
Description: Half-maximal inhibition of [3H]QNB binding to Muscarinic acetylcholine receptor M1 in rat frontal cortex homogenate

For data set [11], the species on record is Mus musculus. Kind of data set: animal or person. Format: functional. The settings on record: sc, dose 0.19 mg/kg, route subcutaneous.
The species entered for data set [12] is Rattus norvegicus. The settings on record: in vivo. This is another data set of the same source.
Description: Area under curve (AUC) value of DOPAC level after total treatment in dialysates collected from rat striatum.
The species entered for data set [13] is Rattus norvegicus. Conditions: in vivo. The source holds these as a separate data set.
For data set [14], the species on record is Rattus norvegicus. Conditions: in vivo. The source holds these as a separate data set.
Description: Area under curve (AUC) value of DOPAC level after first treatment (7.4 uM/Kg) in dialysates collected from rat striatum.

The structures appear in SMILES notation.

For orientation: Ki means the dissociation constant of the complex between target and ligand, obtained from inhibition or displacement. Lower therefore signals tighter binding. For orientation: ED50 means the dose at which the effect has come halfway, by size or by number of responders. The low end stands for greater potency, the high end for weaker potency.

Take `CN1CCN([C@@H]2Cn3cccc3Sc3ccc(Cl)cc32)CC1`: the AUC in [1] came to 133.6; in data set [2] it was 133; in data set [3], 156.3; in [4], 179; in data set [8], 20.35; in data set [12] it was 174.4. For the same compound, the AUC in data set [13] was found to be 193.8; in data set [14], 145.4. Besides, the inhibitory constant (Ki) was 0.209 µM in [5] and 0.287 µM in data set [10]. Also, the ED50 at […] is 115 µmol/kg in data set [6] and 0.48 µmol/kg in data set [11]. The ED50 worked out at 14.3 µmol/kg in data set [7] and 45 µmol/kg in data set [9].
